The source of these data is patent US7196085B2, “Phthalazinone derivatives” (KuDOS Pharmaceuticals Limited, priority 2002, dated 2007).

Molecules are shown by their SMILES.

As usually defined, the melting point is the temperature, or range, at which the solid turns liquid. Regarding `O=C1CC(c2ccccc2)C(=O)N1c1cc(Cc2n[nH]c(=O)c3ccccc23)ccc1Cl` (stereo not shown) [Example 39, 1-[2-chloro-5-(4-oxo-3,4-dihydrophalazin-1-ylmethyl)phenyl]-3-phenylpyrrolidine-2,5-dione], the melting point is 131 to 135 °C.

For the compound `O=C1CC2(CCCC2)C(=O)N1c1cc(Cc2n[nH]c(=O)c3ccccc23)ccc1F` [Example 32, 2-[2-fluoro-5-(4-oxo-3,4-dihydrophthalazin-1-ylmethyl)phenyl]-2-azaspiro[4.4]nonane-1,3-dione], the melting point fell in the range of 215 to 220 °C.

Turning to `CCCCC/C=C/CC1CC(=O)N(c2cc(Cc3n[nH]c(=O)c4ccccc34)ccc2F)C1=O` (stereo not shown) [Example 28, 1-[2-fluoro-5-(4-oxo-3,4-dihydrophthalazin-1-ylmethyl)phenyl]-3-oct-2-enylpyrrolidine-2,5-dione], the melting point fell in the range of 138 to 141 °C.

Compound `CCCCCC/C=C/CC1CC(=O)N(c2cc(Cc3n[nH]c(=O)c4ccccc34)ccc2F)C1=O` (stereo not shown) [Example 30, 1-[2-Fluoro-5-(4-oxo-3,4-dihydrophthalazin-1-ylmethyl)phenyl]-3-non-2-enylpyrrolidine-2,5-dione] displayed a melting point of 146 to 149 °C.

Turning to `CCC/C=C/CC1CC(=O)N(c2cc(Cc3n[nH]c(=O)c4ccccc34)ccc2F)C1=O` (stereo not shown) [Example 29, 1-[2-fluoro-5-(4-oxo-3,4-dihydrophthalazin-1-ylmethyl)phenyl]-3-hex-2-enylpyrrolidine-2,5-dione], the melting point lay within 146 to 149 °C.

Take `O=C(N[C@H]1CC(=O)N(c2cc(Cc3n[nH]c(=O)c4ccccc34)ccc2F)C1=O)OCc1ccccc1` [Example 35, (S)-3-benzyloxycarbonylamino-1-[2-fluoro-5-(4-oxo-3,4-dihydrophthalazin-1-ylmethyl)phenyl]pyrrolidine-2,5-dione]: the melting point is 121 to 127 °C.

Compound `O=C1C2CC2C(=O)N1c1cc(Cc2n[nH]c(=O)c3ccccc23)ccc1Cl` (stereo not shown) [Example 41, 3-[2-chloro-5-(4-oxo-3,4-dihydrophthalazin-1-ylmethyl)phenyl]-3-azabicyclo[3.1.0]hexane-2,4-dione] returned a melting point of 229 to 230 °C.
